Experimental data reported in ChEMBL document CHEMBL6071164, “9,10-Bis[(4-(2-hydroxyethyl)piperazine-1-yl)prop2-yne-1-yl]anthracene: G-Quadruplex Selectivity and Anticancer Activity” (ACS Med Chem Lett, 2024).
Calls of active or inactive are those of the source. No cut-off for these calls is given here.

Experiments:
A549 = assay: Cytotoxicity against human A549 cells assessed as reduction in cell viability incubated for 24 hrs by MTT assay; type: functional, cell-based; details: A549, 24 h
NCI-H1650 = assay: Cytotoxicity against human NCI-H1650 cells assessed as reduction in cell viability incubated for 24 hrs by MTT assay; type: functional, cell-based; details: NCI-H1650, 24 h
[1] = Cytotoxicity against human BEAS-2B cells assessed as reduction in cell viability incubated for 24 hrs by MTT assay; type: toxicity, cell-based
NCI-H460 = assay: Cytotoxicity against human NCI-H460 cells assessed as reduction in cell viability incubated for 24 hrs by MTT assay; type: functional, cell-based; details: NCI-H460, 24 h
NCI-H358 = assay: Cytotoxicity against human NCI-H358 cells assessed as reduction in cell viability incubated for 24 hrs by MTT assay; type: functional, cell-based; details: NCI-H358, 24 h
Quadruplex DNA [2] = assay: Binding affinity to wildtype Tel26 G4 DNA (5'-TTAGGGTTAGGGTTAGGGTTAGGGTT-3') (unknown origin) at 10:1 compound:DNA ratio incubated for 30 mins by ESI-MS analysis; type: nucleic-acid assay
Quadruplex DNA [3] = assay: Binding affinity to Tel23 G4 DNA (unknown origin) in PBS at pH 7.1 at 1.5 mM by wLOGSY analysis; type: nucleic-acid assay
PC-9 = assay: Cytotoxicity against human PC-9 cells assessed as reduction in cell viability incubated for 24 hrs by MTT assay; type: functional, cell-based; details: PC-9, 24 h
NCI-H1975 = assay: Cytotoxicity against human NCI-H1975 cells assessed as reduction in cell viability incubated for 24 hrs by MTT assay; type: functional, cell-based; details: NCI-H1975, 24 h

## OCCN1CCN(CC#Cc2c3ccccc3c(C#CCN3CCN(CCO)CC3)c3ccccc23)CC1
A549
  IC50: 5.2 µM
NCI-H1650
  IC50: > 10 µM
[1]
  IC50 at 24 h: 1.07 µM
NCI-H460
  IC50: 1.91 µM
NCI-H358
  IC50: 6.21 µM
Quadruplex DNA [2]
  Activity: Active
Quadruplex DNA [3]
  Activity: Active
PC-9
  IC50: 2.5 µM
NCI-H1975
  IC50: 3.22 µM
